Source: patent publication US11820799B2, “Malassezia factor with antibiotic activity” (priority 2021, dated 2023)

Test system: S. aureus
Test: S. aureus growth curves / MIC with oxacillin in TSB
Format: cell-based, Staphylococcus aureus
Description: S. aureus growth curves: S. aureus growth curves were performed on a BioTek Synergy™ H1 monochromator-based multi-mode microplate reader in non-treated flat bottom 96-well plates. S. aureus grown overnight in 5 mL of TSB was subcultured 1:10 in fresh TSB for 1 h. Cells were collected through centrifugation at 5,000×g for 1 min and resuspended in fresh TSB. For 0 μg/mL oxacillin, 4 μg/mL oxacillin, and 16 μg/mL oxacillin TSB was utilized with a starting OD600 of 0.02.

Cc1onc(-c2ccccc2)c1C(=O)N[C@@H]1C(=O)N2[C@@H]1SC(C)(C)[C@@H]2C(=O)O [oxacillin]
growth of CFS-resistant strains with Sa-rel mutations (EVOL-P1 Y1 and IsoA) (4 μg/mL oxacillin in TSB): able to grow robustly
growth of CFS-resistant strains with Sa-rel mutations (EVOL-P1 Y1 and IsoA) (16 μg/mL oxacillin in TSB): able to grow robustly
MIC (Staphylococcus aureus, ancestral strain, rich media (tryptic soy broth, TSB)): 4 to 8 µg/mL
